Tested on: VEGF
Test: Immunohistochemical staining of VEGF in SEC tumor sections
Assay type: in vivo, mice
Details: IHC of SEC tumor
Source text: VEGF has been considered a biomarker for VEGFR-2 bioactivity, as it binds to and activates this kinase receptor, playing a crucial role in angiogenesis. High VEGF levels are often associated with increased VEGFR-2 expression and activity, making VEGF a marker for VEGFR-2's function and tumor growth. […] The staining intensity is strong (+ 3), with dark brown cytoplasmic staining in most tumor cells. The immunoreactive score (IRS), calculated by multiplying the staining intensity score and the percentage of positive cells, is 9–12, indicating a high level of VEGF expression. This intense VEGF expression correlates with the presence of numerous irregular and dilated blood vessels in the tumor microenvironment.
The paraffin-infiltrated tissue was sliced into thin sections (4-6 μm) using a microtome and floated in a water bath. The sections were then mounted onto charged slides and left to dry overnight. The use of charged slides ensures the sections adhere properly to the slide. To carry out antibody staining, the paraffin wax was removed from the sample, and the tissue was rehydrated. The paraffin was eliminated by placing the tissue sections in three containers of xylene for 5 minutes each. Rehydration began by immersing the sections in two containers of 100% ethanol for 10 minutes each, followed by two containers of 95% ethanol for 10 minutes each. Finally, to complete the rehydration, the sections were washed twice in deionized water for 5 minutes each.
For antigen retrieval, the slides are heated in 10 mM Tris/1 mM EDTA, pH 9.0, kept at a sub-boiling temperature for 18 minutes, and then allowed to cool at room temperature for 30 minutes. For chromogenic staining detection, the sections are rinsed in deionized water three times for 5 minutes each, and then the endogenous peroxidase activity in the tissue sections is quenched to prevent high background staining by incubating the sections in 3% hydrogen peroxide for 10 minutes. Afterward, the sections are washed twice in deionized water for 5 minutes each, followed by a single wash in wash buffer for 5 minutes. A hydrophobic pen is used to carefully draw a large circle around the sample, ensuring it doesn’t touch the sample, creating a hydrophobic boundary to achieve optimal antibody staining quality. To prevent non-specific antibodies from binding to the tissue, each section is blocked with 100–400 µl of blocking solution for 1 hour at room temperature in a humidified chamber. The blocking solution was discarded, and 100–400 µl of diluted primary antibody was applied. […]
The slides were incubated overnight at 4°C in a humidified chamber. […] Then, 100–400 µl of Signal Stain DAB was applied to each section and monitored closely for 1–10 minutes until an acceptable staining intensity was achieved. […]

`CCC(C)n1ncn(-c2ccc(N3CCN(c4ccc(OCC5COC(Cn6cncn6)(c6ccc(Cl)cc6Cl)O5)cc4)CC3)cc2)c1=O` (centres unmarked) [Itraconazole, itraconazole] was tested, and the “immunoreactive score (IRS)” value (scale 0-12, SEC control 9–12) was 4–8 and the “percentage of VEGF-positive tumor cells” value (SEC control 80–90%) was 40–60%.

— paper PMC12699035, “Exploring market-approved azoles as potential breast cancer therapeutics targeting the VEGFR-2 biotarget” (Scientific Reports, 2025)
